Measurements taken from US6887896B1, “7-[(7-Alkoxy)-chrom-3-en-6-yl]-heptatrienoic acid and 7-[(3-alkoxy)-5,6-dihydronaphthalen-2-yl]-heptatrienoic acid derivatives having serum glucose reducing activity” (Allergan, Inc., priority 2003, dated 2005).

Columns and labels:
RARα = target: T1, RARα (Homo sapiens, UniProt P10276); assay: ligand binding assay, RARα; conditions: Table 9 (Formula F); read-out: RAR α Kd
T1 sequence (P10276 1-462): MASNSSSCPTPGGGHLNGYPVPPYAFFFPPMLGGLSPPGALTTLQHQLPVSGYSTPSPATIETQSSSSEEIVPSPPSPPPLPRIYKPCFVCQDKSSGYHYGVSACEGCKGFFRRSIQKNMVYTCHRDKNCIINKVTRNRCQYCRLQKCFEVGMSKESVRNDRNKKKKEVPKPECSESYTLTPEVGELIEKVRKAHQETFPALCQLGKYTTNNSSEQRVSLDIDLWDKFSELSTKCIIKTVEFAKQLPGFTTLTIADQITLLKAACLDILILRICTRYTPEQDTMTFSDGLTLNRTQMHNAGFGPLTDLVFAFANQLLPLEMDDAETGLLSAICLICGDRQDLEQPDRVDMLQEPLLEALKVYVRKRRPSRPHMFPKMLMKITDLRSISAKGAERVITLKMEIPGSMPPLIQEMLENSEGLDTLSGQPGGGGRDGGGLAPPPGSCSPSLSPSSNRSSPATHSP
Outline: (§1)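 Binding of compounds to several retinoid receptor subtypes was measured. Results are given as Ki values in nanomolar concentration, derived per Cheng et al.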

RARγ = target: T2, RARγ (Homo sapiens, UniProt P13631); assay: ligand binding assay, RARγ; conditions: Table 9 (Formula F); read-out: RAR γ Kd
T2 sequence (P13631 1-454): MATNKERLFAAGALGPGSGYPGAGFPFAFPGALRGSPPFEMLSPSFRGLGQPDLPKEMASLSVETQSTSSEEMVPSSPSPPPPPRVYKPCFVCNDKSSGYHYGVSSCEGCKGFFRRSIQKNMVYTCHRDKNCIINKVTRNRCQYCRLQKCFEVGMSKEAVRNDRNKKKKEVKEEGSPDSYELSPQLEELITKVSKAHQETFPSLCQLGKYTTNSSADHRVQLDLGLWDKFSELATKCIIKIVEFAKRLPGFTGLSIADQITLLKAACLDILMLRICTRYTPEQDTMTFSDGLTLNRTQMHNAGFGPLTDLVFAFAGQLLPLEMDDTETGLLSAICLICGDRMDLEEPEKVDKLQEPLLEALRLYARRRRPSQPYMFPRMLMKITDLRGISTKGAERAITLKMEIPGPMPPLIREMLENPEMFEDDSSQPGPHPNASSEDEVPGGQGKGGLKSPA
Outline: as §1

RARβ = target: T3, RARβ (Homo sapiens, UniProt P10826); assay: ligand binding assay, RARβ; conditions: Table 9 (Formula F); read-out: RAR β Kd
T3 sequence (P10826 1-455): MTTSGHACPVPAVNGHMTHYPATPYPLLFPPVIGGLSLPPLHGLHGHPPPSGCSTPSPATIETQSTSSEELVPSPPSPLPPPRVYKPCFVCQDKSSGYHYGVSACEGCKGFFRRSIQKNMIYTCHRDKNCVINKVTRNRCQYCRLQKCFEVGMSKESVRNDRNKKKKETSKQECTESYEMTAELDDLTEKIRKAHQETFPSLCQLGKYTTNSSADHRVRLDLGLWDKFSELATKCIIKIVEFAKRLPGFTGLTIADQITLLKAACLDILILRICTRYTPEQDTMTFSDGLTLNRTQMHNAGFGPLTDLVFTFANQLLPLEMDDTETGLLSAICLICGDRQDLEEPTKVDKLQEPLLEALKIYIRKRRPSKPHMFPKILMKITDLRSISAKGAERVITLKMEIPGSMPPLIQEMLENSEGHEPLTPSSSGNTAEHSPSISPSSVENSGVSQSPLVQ
Outline: as §1

In the case of `CCOc1c(\C(C)=C(F)/C=C/C(C)=C/C(=O)O)cc2c(c1Br)C(C)(C)CC=C2C(C)(C)C` [Compound A-174, (2E,4E,6E)-7-(4-Bromo-8-tert-butyl-3-ethoxy-5,5-dimethyl-5,6-dihydro-naphthalen-2-yl)-6-fluoro-3-methyl-octa-2,4,6-trienoic acid], the Kd (RARα) is reported as 997 nM, the Kd (RARγ) is reported as 1600 nM and the Kd (RARβ) is reported as 517 nM.

`CCOc1c(\C(CC)=C(F)/C=C/C(C)=C/C(=O)O)cc2c(c1Br)C(C)(C)CC=C2C(C)CC` (stereo not drawn) [Compound A-176, (2E,4E,6E)-7-(4-Bromo-8-sec-butyl-3-ethoxy-5,5-methyl-5,6-dihydro-naphthalen-2-yl)-6-fluoro-3-methyl-nona-2,4,6-trienoic acid] showed a Kd (RARα) of 32 nM, a Kd (RARγ) of 517 nM and a Kd (RARβ) of 112 nM.

In the case of `CCOc1c(\C(C)=C(F)/C=C/C(C)=C/C(=O)O)cc2c(c1Cl)C(C)(C)CC=C2C(C)C` [Compound A-177, (2E,4E,6E)-7-(4-Chloro-3-ethoxy-8-isopropyl-5,5-dimethyl-5,6-dihydronaphthalen-2-yl)6-fluoro-3-methyl-octa-2,4,6-trienoic acid], the Kd (RARα) is reported as 60 nM, the Kd (RARγ) is reported as 1200 nM and the Kd (RARβ) is reported as 443 nM.

`CCOc1c(\C(CC)=C(F)/C=C/C(C)=C/C(=O)O)cc2c(c1Cl)C(C)(C)CC=C2C(C)C` [Compound A-178, (2E,4E,6E)-7-(4-Chloro-3-ethoxy-8-isopropyl-5,5-dimethyl-5,6-dihydronaphthalen-2-yl)-6-fluoro-3-methyl-nona-2,4,6-trienoic acid] gave a Kd (RARα) of 9.9 nM, a Kd (RARγ) of 449 nM and a Kd (RARβ) of 79 nM.
